Experiments:
most fungi = details: for most fungi; cited from earlier work
[1] = system: Penicillium italicum (ATCC 36041); experiment: Antifungal efficacy of natamycin/thickener compositions on wounded oranges (dip treatment); assay type: in vivo; details: after 23 days of storage at room temperature; 0.2% (w/v) thickening agent, 1000 μg/ml natamycin; dipped one minute, P. italicum
Experimental: In a further experiment the antifungal activity of antimicrobial compositions comprising 1000 μg/ml natamycin and 0.2% (w/v) of the thickening agents described above was examined on oranges. The oranges were obtained from a local retailer in The Netherlands. The oranges were treated with spores of the mould Penicillium italicum (ATCC 36041). The mould spores were obtained using well-known methods. The oranges were injured according to the method described by Lapere de Bellaire and Dubois (see Plant disease 81:1378-1383, ([…])). Oranges were wounded three times using a cork borer followed by contamination per wound with 5 μl of a P. italicum spore suspension containing 10^6 spores/ml. After incubation for 1 hour at room temperature, the oranges were dipped for one minute into the freshly prepared antimicrobial compositions, dripped off and dried to the air. The experiment was executed in ninefold. The oranges were stored for 23 days under the conditions as described above and were judged visually on mould development.

[2] = system: Botrytis cinerea (ATCC 12481); experiment: Antifungal efficacy of natamycin/thickener compositions on strawberries; assay type: in vivo; details: after 6 days of storage at room temperature; 0.6% (w/v) thickening agent, 1000 μg/ml natamycin; B. cinerea
Experimental: In this experiment the antifungal activity of antimicrobial compositions comprising natamycin and the above-mentioned thickening agents was examined on strawberries. Compositions containing thickening agents and the antifungal agent natamycin were prepared as described in Example 1. The compositions comprised a final concentration of 0.6% (w/v) thickening agent and 1000 μg/ml natamycin. Fresh untreated strawberries from a local retailer in The Netherlands were artificially contaminated with 5 μl of a freshly prepared concentrated suspension of spores (10^6 spores/ml) of the mould species Botrytis cinerea (ATCC 12481). The mould spores were prepared using well-known methods. One hour after contamination the strawberries were dipped for one minute into the freshly prepared antimicrobial compositions, dripped off and dried to the air. The experiment was executed in ninefold. The strawberries were stored for 6 days under the conditions as described in Example 1 and were judged visually on mould development.

[3] = cited from earlier work
[4] = system: Aspergillus ochraceus (ATCC 60532); experiment: Antifungal efficacy of natamycin/thickener compositions on fresh coffee beans; assay type: in vivo; details: after 4 days of storage at room temperature; 0.6% (w/v) thickening agent, 1000 μg/ml natamycin; A. ochraceus
Experimental: In this experiment the antifungal activity of the antimicrobial compositions comprising natamycin and the above-mentioned thickening agents was examined on fresh coffee beans. Compositions containing thickening agents and the antifungal agent natamycin were prepared as described in Example 1. The compositions comprised a final concentration of 0.6% (w/v) thickening agent and 1000 μg/ml natamycin. Fresh untreated coffee beans from a local retailer in The Netherlands were artificially contaminated with 5 μl of a freshly prepared concentrated suspension of spores (10^6 spores/mil) of the mould Aspergillus ochraceus (ATCC 60532). The mould spores were prepared using well-known methods. One hour after contamination the coffee beans were dipped for one minute into the freshly prepared antimicrobial compositions, dripped off and dried to the air. The experiment was executed in ninefold. The coffee beans were stored for 4 days under the conditions as described in Example 1 and were judged visually on mould development.

## C[C@@H]1C/C=C/C=C/C=C/C=C/[C@H](O[C@@H]2O[C@H](C)[C@@H](O)[C@H](N)[C@@H]2O)C[C@@H]2O[C@](O)(C[C@@H](O)C[C@H]3O[C@@H]3/C=C/C(=O)O1)C[C@H](O)[C@H]2C(=O)O [Natamycin, natamycin]
Most fungi
  MIC (Minimal Inhibitory Concentration): less than 10 mg/l
[1]
  Moulded orange wounds (total amount of wounds is 9): 9
[2]
  Moulded strawberries of the total of 9: 6
[3]
  solubility in water: 30 to 50 µg/mL
[4]
  Moulded coffee beans of the total of 9: 9

From patent publication US20120027905A1, “POLYENE ANTIFUNGAL COMPOSITIONS” (DSM IP ASSETS B.V., priority 2009, published 2012)
